Measured values reported in patent US20060264423A1 (BIOENVISION, INC., priority 2005, published 2006).
Like-named read-outs stand apart in the source and are kept apart here.

Tests used:
[1] = in vivo; cited from earlier work
chronic hepatitis B or C = conditions: patients with chronic hepatitis B or C; cited from earlier work
Herpes B = conditions: cited from earlier work
[2] = in vivo; cited from earlier work; remark: listed apart in the source
[3] = in vivo; cited from earlier work; remark: listed apart in the source
[4] = sheep; cited from earlier work
[5] = cited from earlier work
hepatitis C, genotype 4 = test: Open label clinical trial of oral methylene blue, reduction in hepatitis C viral load measured by PCR
[6] = sheep; doses as high as 50 mg/kg; cited from earlier work
[7] = in vivo; cited from earlier work; remark: listed apart in the source
[8] = at 50 days, of the 23 responders

CC(=O)OCC(CCn1cnc2cnc(N)nc21)COC(C)=O [famciclovir]
oral bioavailability superior to that of oral acyclovir [1]: 3-5 times

Interferon alpha
patients in whom treatment is effective (chronic hepatitis B or C): 25-30%

CC(C)[C@H](N)C(=O)OCCOCn1cnc2c(=O)[nH]c(N)nc21 [Valaciclovir]
oral bioavailability superior to that of oral acyclovir [1]: 3-5 times

Nc1nc(O)c2ncn(COC(CO)CO)c2n1 [Ganciclovir]
sensitivity of the virus in vitro (Herpes B): sensitive

Nc1nc2c(ncn2COCCO)c(=O)[nH]1 [Acyclovir]
sensitivity of the virus in vitro (Herpes B): sensitive

CN(C)c1ccc2nc3ccc(N(C)C)cc3[s+]c2c1 [methylene blue, 3,7-Bis(dimethylamino)-phenothiazin-5-ium chloride]
absorption from the GI tract [2]: absorbed well
crossing of the blood-milk barrier [3]: crosses the blood-milk barrier easily
overall elimination rate constant [4]: 0.0076 ± 0.0016 min⁻¹
side effects ([5]; adult humans, one week to 19 months, 100 mg b.i.d. or t.i.d. orally or 100 mg intravenously): minimal side effects
side effects ([5]; recommended dose 50 to 300 mg by mouth, 1 to 4 mg/kg intravenously): blue urine, occasional nausea, anemia and fever
decrease in viral count (hepatitis C, genotype 4; 23 patients (of 25, genotype 4), at 50 days): 70-100%
non-responders (hepatitis C, genotype 4; at 50 days, 25 patients, genotype 4): Two
responders with between 0.7-1 log reduction in viral load (hepatitis C, genotype 4; [8]): 12 (52%) patients (%)
responders with between 1-2 log reduction in viral load (hepatitis C, genotype 4; [8]): 6 (26%) patients (%)
responders with viral clearance (hepatitis C, genotype 4; [8]): 5 (22%) patients (%)
drop in viral load (hepatitis C, genotype 4; interim results, 8 of 9 patients, within the first 50 days): 62%-100
patients with between greater than or equal to 0.6 log to less than or equal to 1 log reduction in viral load (hepatitis C, genotype 4; interim results, first 9 patients, 50 days of treatment): 89%
patients with a greater than or equal to two log reduction in viral load (hepatitis C, genotype 4; interim results, first 9 patients, 50 days of treatment, 65 mg twice daily oral): 33%
efficacy in treating hepatitis C (conclusion) (hepatitis C, genotype 4; overall conclusion of the trial results): highly efficacious
methemoglobin production [6]: minimal methemoglobin production
oral absorption (range) [7]: 55% to 97
